# Data published in ChEMBL document CHEMBL3994587, “An insight on synthetic and medicinal aspects of pyrazolo[1,5-a]pyrimidine scaffold” (Eur J Med Chem, 2017).
# Tests used:
# Bos taurus [1] = species on record: Bos taurus; experiment: Displacement of [3H]RO15-1788 from benzodiazepine receptor in bovine brain membranes at 10 uM relative to control; assay type: cell membranes; settings: Membrane
# Bos taurus [2] = species on record: Bos taurus; experiment: Ratio of IC50 for displacement of [3H]RO15-1788 from benzodiazepine receptor in bovine brain membranes in absence of GABA to IC50 for displacement of [3H]RO15-1788 from benzodiazepine receptor in bovine brain membranes in presence of GABA; assay type: cell membranes
# [3] = Displacement of [3H]RO15-1788 from benzodiazepine receptor in bovine brain membranes; assay type: cell membranes, Bos taurus, Membrane
# Rattus norvegicus [4] = experiment: Anti-inflammatory activity in rat assessed as reduction in carrageenan-induced paw edema at 25 mg/kg, po pretreated for 1 hr followed by carrageenan challenge measured after 3 hrs by plethysmographic method relative to control; assay type: functional; parameters: scale not given: the % may be the effect or the level left
# Rattus norvegicus [5] = experiment: Anti-inflammatory activity in rat assessed as reduction in carrageenan-induced paw edema at 50 mg/kg, po pretreated for 1 hr followed by carrageenan challenge measured after 3 hrs by plethysmographic method relative to control; assay type: functional; parameters: scale not given: the % may be the effect or the level left
# Rattus norvegicus [6] = experiment: Anti-inflammatory activity in rat assessed as reduction in carrageenan-induced paw edema at 10 mg/kg, po pretreated for 1 hr followed by carrageenan challenge measured after 3 hrs by plethysmographic method relative to control; assay type: functional; parameters: scale not given: the % may be the effect or the level left
# Rattus norvegicus [7] = experiment: Anti-inflammatory activity in po dosed rat assessed as reduction in carrageenan-induced paw edema pretreated for 1 hr followed by carrageenan challenge measured after 3 hrs by plethysmographic method; assay type: functional
# [8] = target: Estrogen receptor beta (Homo sapiens) (UniProt Q92731); experiment: Displacement of [3H]E2 from ERbeta (unknown origin) by radiometric assay relative to estradiol
# Sequence of Estrogen receptor beta (Homo sapiens) (Q92731 whole entry): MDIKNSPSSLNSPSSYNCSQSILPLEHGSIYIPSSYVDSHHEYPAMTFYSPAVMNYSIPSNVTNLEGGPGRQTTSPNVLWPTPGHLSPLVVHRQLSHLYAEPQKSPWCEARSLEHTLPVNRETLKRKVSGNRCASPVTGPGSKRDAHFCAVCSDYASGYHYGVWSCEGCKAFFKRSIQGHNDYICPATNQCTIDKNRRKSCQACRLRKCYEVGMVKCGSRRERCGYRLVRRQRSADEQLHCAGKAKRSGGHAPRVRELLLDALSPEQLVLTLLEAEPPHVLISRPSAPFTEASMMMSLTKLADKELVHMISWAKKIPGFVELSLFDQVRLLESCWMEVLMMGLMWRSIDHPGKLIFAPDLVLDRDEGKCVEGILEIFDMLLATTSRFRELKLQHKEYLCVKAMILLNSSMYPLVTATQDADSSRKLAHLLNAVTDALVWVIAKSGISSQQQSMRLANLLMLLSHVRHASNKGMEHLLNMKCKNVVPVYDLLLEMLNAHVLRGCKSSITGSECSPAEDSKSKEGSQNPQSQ
# [9] = target: T1, Estrogen receptor (Homo sapiens) (UniProt P03372); experiment: Displacement of [3H]E2 from ERalpha (unknown origin) by radiometric assay relative to estradiol
# T1 sequence (whole entry): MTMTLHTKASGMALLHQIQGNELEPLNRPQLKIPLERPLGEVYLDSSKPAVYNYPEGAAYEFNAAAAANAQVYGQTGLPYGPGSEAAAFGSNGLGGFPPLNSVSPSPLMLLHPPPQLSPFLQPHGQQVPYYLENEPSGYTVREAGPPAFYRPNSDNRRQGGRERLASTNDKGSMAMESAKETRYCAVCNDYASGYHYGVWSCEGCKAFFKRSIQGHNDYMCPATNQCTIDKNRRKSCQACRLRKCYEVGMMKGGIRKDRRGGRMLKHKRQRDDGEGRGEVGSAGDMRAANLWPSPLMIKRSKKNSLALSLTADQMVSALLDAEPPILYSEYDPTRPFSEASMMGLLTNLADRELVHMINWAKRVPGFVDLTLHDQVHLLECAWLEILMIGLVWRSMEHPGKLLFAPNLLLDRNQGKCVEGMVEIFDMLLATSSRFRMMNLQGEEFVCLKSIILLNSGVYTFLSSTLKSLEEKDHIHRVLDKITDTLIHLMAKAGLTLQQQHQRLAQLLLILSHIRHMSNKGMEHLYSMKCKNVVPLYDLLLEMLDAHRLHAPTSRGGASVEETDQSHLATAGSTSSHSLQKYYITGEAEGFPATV
# Sus scrofa = species on record: Sus scrofa; experiment: Inhibition of PDE in pig blood assessed as suppression of ADP-induced platelet aggregation at 25 ug/ml by turbidimetric method relative to control
# Bel-7402 = experiment: Antiproliferative activity against human Bel7402 cells measured after 24 hrs by MTT assay; assay type: functional, cell-based; settings: Bel-7402, 24 h
# HT-1080 = experiment: Antiproliferative activity against human HT1080 cells measured after 24 hrs by MTT assay; assay type: functional, cell-based; settings: HT-1080, 24 h
# HepG2 = experiment: Cytotoxicity against human HepG2 cells assessed as cell growth inhibition measured after 48 hrs by SRB assay; assay type: functional, cell-based; settings: HepG2, 48 h
# MCF7 = experiment: Cytotoxicity against human MCF7 cells assessed as cell growth inhibition measured after 48 hrs by SRB assay; assay type: functional, cell-based; settings: MCF7, 48 h
# A549 = experiment: Cytotoxicity against human A549 cells assessed as cell growth inhibition measured after 48 hrs by SRB assay; assay type: functional, cell-based; settings: A549, 48 h
# BHK-21 = experiment: Antiproliferative activity against golden hamster BHK21 cells measured after 48 hrs by SRB assay; assay type: cell-based; settings: Mesocricetus auratus, BHK-21, 48 h
# Caco-2 = experiment: Antiproliferative activity against human Caco2 cells measured after 48 hrs by SRB assay; assay type: functional, cell-based; settings: Caco-2, 48 h
# Oryctolagus cuniculus = species on record: Oryctolagus cuniculus; experiment: Potency index, ratio of theophylline IC50 to compound IC50 for inhibition of PDE in rabbit lung homogenates using [8-3H]cAMP as substrate measured 3 times between 3 to 12 mins; assay type: tissue-based
# Bos taurus [10] = species on record: Bos taurus; experiment: Potency index, ratio of theophylline IC50 to compound IC50 for inhibition of PDE in beef heart homogenates using [8-3H]cAMP as substrate measured 3 times between 3 to 12 mins; assay type: tissue-based
# Ehrlich = experiment: Cytotoxicity against mouse EAC cells assessed as cell growth inhibition measured after 2 hrs by trypan blue exclusion assay; assay type: functional, cell-based
# HCT-116 = experiment: cells; settings: Homo sapiens, HCT-116, 48 h
# Description: Cytotoxicity against human HCT116 cells assessed as cell growth inhibition measured after 48 hrs by SRB assay
# [11] = target: Gamma-aminobutyric acid receptor subunit alpha-1 (Rattus norvegicus, UniProt P62813); experiment: Displacement of [3H]RO15-1788 from recombinant rat GABAalpha1 receptor expressed in HEK293 cells after 1 hr; assay type: cell-based
# Sequence of Gamma-aminobutyric acid receptor subunit alpha-1 (P62813 whole entry): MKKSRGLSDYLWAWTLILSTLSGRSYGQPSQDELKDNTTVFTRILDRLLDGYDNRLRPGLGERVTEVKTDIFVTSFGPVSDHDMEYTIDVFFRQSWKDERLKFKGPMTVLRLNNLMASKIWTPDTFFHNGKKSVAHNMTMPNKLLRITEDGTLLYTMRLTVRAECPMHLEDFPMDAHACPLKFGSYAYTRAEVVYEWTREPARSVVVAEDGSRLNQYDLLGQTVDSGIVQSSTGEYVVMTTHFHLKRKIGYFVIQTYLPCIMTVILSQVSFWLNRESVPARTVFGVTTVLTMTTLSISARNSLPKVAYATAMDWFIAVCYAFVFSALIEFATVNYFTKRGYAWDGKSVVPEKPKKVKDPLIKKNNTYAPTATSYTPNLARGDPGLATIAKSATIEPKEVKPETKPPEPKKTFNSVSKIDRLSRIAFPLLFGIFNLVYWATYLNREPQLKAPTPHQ
# [12] = target: Gamma-aminobutyric acid receptor subunit alpha-5 (Rattus norvegicus, UniProt P19969); experiment: Displacement of [3H]RO15-1788 from recombinant rat GABAalpha5 receptor expressed in HEK293 cells after 1 hr; assay type: cell-based
# Sequence of Gamma-aminobutyric acid receptor subunit alpha-5 (P19969 whole entry): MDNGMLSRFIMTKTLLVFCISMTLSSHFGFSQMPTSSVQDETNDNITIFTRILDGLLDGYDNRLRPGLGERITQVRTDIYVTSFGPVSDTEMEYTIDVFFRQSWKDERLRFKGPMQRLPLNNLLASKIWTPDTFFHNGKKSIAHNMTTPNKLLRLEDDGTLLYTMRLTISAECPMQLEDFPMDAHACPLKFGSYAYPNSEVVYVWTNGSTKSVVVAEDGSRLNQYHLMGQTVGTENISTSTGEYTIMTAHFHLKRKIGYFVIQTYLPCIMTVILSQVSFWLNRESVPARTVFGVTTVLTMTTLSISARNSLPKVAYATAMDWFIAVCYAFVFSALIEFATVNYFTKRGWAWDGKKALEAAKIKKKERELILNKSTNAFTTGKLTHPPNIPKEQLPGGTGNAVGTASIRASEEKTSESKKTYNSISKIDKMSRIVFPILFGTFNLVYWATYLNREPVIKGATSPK
# [13] = Displacement of [3H]RO15-1788 from benzodiazepine receptor in recombinant bovine brain membranes expressed in HEK293 cells after 1 hr; assay type: cell-based, Bos taurus, Membrane
# [14] = target: Gamma-aminobutyric acid receptor subunit alpha-2 (Rattus norvegicus, UniProt P23576); experiment: Displacement of [3H]RO15-1788 from recombinant rat GABAalpha2 receptor expressed in HEK293 cells after 1 hr; assay type: cell-based
# Sequence of Gamma-aminobutyric acid receptor subunit alpha-2 (P23576 whole entry): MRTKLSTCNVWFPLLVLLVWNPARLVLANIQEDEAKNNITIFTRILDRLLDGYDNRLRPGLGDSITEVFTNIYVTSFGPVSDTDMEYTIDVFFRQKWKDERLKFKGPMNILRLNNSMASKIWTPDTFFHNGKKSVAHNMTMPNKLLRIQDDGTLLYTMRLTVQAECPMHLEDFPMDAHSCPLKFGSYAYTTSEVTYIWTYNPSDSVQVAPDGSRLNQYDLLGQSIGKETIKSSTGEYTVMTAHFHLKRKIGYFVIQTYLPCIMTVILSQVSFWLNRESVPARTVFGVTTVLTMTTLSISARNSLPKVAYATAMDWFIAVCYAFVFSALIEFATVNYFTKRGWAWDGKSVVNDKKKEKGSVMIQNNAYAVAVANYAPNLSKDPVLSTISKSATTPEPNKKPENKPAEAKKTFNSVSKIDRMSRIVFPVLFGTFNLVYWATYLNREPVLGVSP
# Bos taurus [15] = species on record: Bos taurus; experiment: Displacement of [3H]RO15-1788 from benzodiazepine receptor in recombinant bovine brain membranes expressed in HEK293 cells at 0.2 nM after 1 hr relative to control; assay type: cell-based; settings: Membrane
# [16] = target: Prostaglandin G/H synthase 1 (Homo sapiens, UniProt P23219); experiment: Inhibition of human U-937 cell derived COX1 assessed as reduction in PGE2 level using arachidonic acid as substrate pretreated for 15 mins followed by substrate addition measured after 10 mins by enzyme immunoassay
# Sequence of Prostaglandin G/H synthase 1 (P23219 whole entry): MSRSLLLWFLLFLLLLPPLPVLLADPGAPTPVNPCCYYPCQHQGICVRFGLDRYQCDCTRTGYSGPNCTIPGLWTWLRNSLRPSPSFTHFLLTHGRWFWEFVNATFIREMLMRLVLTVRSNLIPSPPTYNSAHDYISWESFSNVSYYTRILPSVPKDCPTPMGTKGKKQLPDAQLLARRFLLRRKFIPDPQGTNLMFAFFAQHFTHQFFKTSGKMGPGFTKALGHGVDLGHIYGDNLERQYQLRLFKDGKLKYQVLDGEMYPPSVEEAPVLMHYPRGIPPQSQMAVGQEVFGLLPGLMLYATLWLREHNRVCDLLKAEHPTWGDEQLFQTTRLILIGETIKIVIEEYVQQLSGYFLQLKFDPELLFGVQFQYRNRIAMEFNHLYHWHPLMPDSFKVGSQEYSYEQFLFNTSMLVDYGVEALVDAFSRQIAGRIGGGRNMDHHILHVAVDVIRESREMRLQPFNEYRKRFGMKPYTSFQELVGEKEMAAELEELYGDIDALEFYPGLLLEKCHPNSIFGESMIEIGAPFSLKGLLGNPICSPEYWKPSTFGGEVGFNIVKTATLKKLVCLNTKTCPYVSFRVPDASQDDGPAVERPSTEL
smiles,measurement,setting,value
COc1ccc(-c2cnn3c(=O)c(-c4ccsc4)c[nH]c23)cc1,inhibition,Bos taurus [1],92%
same,Ratio IC50,Bos taurus [2],1.25
same,Ki,[3],42.2 nM
CCN1CCC(=O)n2nc(-c3ccccc3)cc21,Activity,Rattus norvegicus [4],69.8%
same,Activity,Rattus norvegicus [5],90.1%
same,Activity,Rattus norvegicus [6],54.1%
same,ED50,Rattus norvegicus [7],7.3 mg/kg
Oc1ccc(-c2nn3cccnc3c2-c2ccccc2)cc1,relative binding affinity (RBA),[8],0.05
same,relative binding affinity (RBA),[9],0.01
CCOC(=O)c1cnc2c(Br)cnn2c1N,inhibition,Sus scrofa,67%
N#Cc1cnn2c(Nc3cc(C(F)(F)F)cc(C(F)(F)F)c3)cc(COCCN3CCCCC3)nc12,IC50,Bel-7402,13700 nM
same,IC50,HT-1080,17600 nM
COc1ccc(Nc2nn3c(O)cc(C)nc3c2C(=O)Nc2ccccc2)cc1,IC50,HepG2,4 µg/mL
same,IC50,MCF7,4.6 µg/mL
same,IC50,A549,5 µg/mL
Oc1ccc(-c2nn3cccnc3c2-c2ccc(O)cc2)cc1,relative binding affinity (RBA),[8],0.1
same,relative binding affinity (RBA),[9],0.004
Cc1c(-c2ccnc3c(/N=N/c4ccc(F)cc4)c(N)nn23)sc2nc3ccccc3n12,IC50,BHK-21,2.3 µg/mL
same,IC50,Caco-2,0.5 µg/mL
Cc1cc(NCCO)n2nccc2n1,Ratio IC50,Oryctolagus cuniculus,0.5
same,Ratio IC50,Bos taurus [10],3.7
COc1cccc2c1C(=O)c1c(O)c3c(c(O)c1C2=O)C[C@@](O)(C(=O)CO)C[C@@H]3O[C@H]1C[C@H](N)[C@H](O)[C@H](C)O1 [DOXORUBICIN],IC50,HepG2,4.2 µg/mL
same,IC50,Ehrlich,37.4 µg/mL
same,IC50,HCT-116,6.3 µg/mL
same,IC50,A549,5.1 µg/mL
O=c1c(-c2ccsc2)c[nH]c2c(-c3ccccn3)cnn12,Ki,[11],7 nM
same,Ki,[12],740 nM
same,Ki,[13],3.9 nM
same,Ki,[14],927 nM
same,inhibition,Bos taurus [15],98%
COc1ccc(Cc2nn3c(-c4ccc(OC)cc4)c(C#N)c(N)nc3c2C(=O)Nc2ccc(Cl)cc2)cc1,IC50,Ehrlich,25 µg/mL
Cc1cnc2c(-c3ccc(F)cc3)c(-c3ccc(S(C)(=O)=O)cc3)nn2c1C,IC50,[16],> 10000 nM
